Data from ChEMBL document CHEMBL1201862, “PubChem BioAssay data set” (2004).
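96-well plates; 48 h exposure; 5 concentrations. Endpoints by linear interpolation between flanking doses. Not reached: highest tested concentration assigned. At the GI50, growth is halved.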 Calls of active or inactive are those of the source. No stated cut-off is given here; in the data, active = GI50 up to about 1.1 µM and inactive = higher.

How the values were obtained:
Assay in all cases: NCI tumour cell line growth inhibition, 48 h
[1] = tested on: HOP-92
[2] = tested on: MDA-MB-435
[3] = tested on: SK-MEL-5
[4] = tested on: RPMI-8226
[5] = tested on: SK-MEL-28
[6] = tested on: OVCAR-4
[7] = tested on: UACC-62
[8] = tested on: SF-295
[9] = tested on: SN12C
[10] = tested on: OVCAR-3
[11] = tested on: SR
[12] = tested on: SK-MEL-2
[13] = tested on: MCF7
[14] = tested on: CCRF-CEM
[15] = tested on: IGROV-1
[16] = tested on: SF-268
[17] = tested on: NCI/ADR-RES
[18] = tested on: CAKI-1
[19] = tested on: RXF 393
[20] = tested on: T47D

Row | SMILES | GI50 [1] | GI50 [2] | GI50 [3] | GI50 [4] | GI50 [5] | GI50 [6] | GI50 [7] | GI50 [8] | GI50 [9] | GI50 [10] | GI50 [11] | GI50 [12] | GI50 [13] | GI50 [14] | GI50 [15] | GI50 [16] | GI50 [17] | GI50 [18] | GI50 [19] | GI50 [20]
1 | CC(CCOc1c2ccoc2cc2oc(=O)ccc12)C1=CC(=O)C(C)(C)O1 (configuration not stated) | > 100 µM (inactive) | > 100 µM (inactive) | > 100 µM (inactive) | > 100 µM (inactive) | > 100 µM (inactive) | 42 µM (inactive) | > 100 µM (inactive) | > 100 µM (inactive) | > 100 µM (inactive) | > 100 µM (inactive) | > 100 µM (inactive) | > 100 µM (inactive) | > 100 µM (inactive) | > 100 µM (inactive) | > 100 µM (inactive) | > 100 µM (inactive) | > 100 µM (inactive) | > 100 µM (inactive) | > 100 µM (inactive) | 
2 | Cc1ccc(-c2c(C#N)c(-c3ccc(Cl)cc3)c(C#N)c(=O)n2NS(=O)(=O)c2ccccc2)cc1 | 25.2 µM (inactive) | > 100 µM (inactive) | 31.9 µM (inactive) | 18.4 µM (inactive) | > 100 µM (inactive) | 37.2 µM (inactive) | 58.6 µM (inactive) | 60.8 µM (inactive) | 95.1 µM (inactive) |  |  | 25.7 µM (inactive) | 51.2 µM (inactive) | 34.4 µM (inactive) | 33 µM (inactive) | 67 µM (inactive) | 26.9 µM (inactive) | 37.2 µM (inactive) | 32 µM (inactive) | 
3 | Clc1ccc(Cl)c(SCCCN2CCNCC2)c1 | 15 µM (inactive) | 14 µM (inactive) | 15.2 µM (inactive) | 19.8 µM (inactive) | 10.4 µM (inactive) | 20.6 µM (inactive) | 2.61 µM (inactive) | 17.8 µM (inactive) | 19.2 µM (inactive) | 19.2 µM (inactive) |  |  | 18.4 µM (inactive) | 19.9 µM (inactive) | 18.2 µM (inactive) | 16.6 µM (inactive) | 17.3 µM (inactive) | 17.8 µM (inactive) | 14.4 µM (inactive) | 23.9 µM (inactive)
4 | O=C1/C(=C/c2ccc(O)cc2)NC(=S)N1CN1CCCCC1 | 54.6 µM (inactive) | 70.3 µM (inactive) | 27.4 µM (inactive) | 28.6 µM (inactive) | > 100 µM (inactive) | 53.3 µM (inactive) | 42.9 µM (inactive) | 89.7 µM (inactive) | 80 µM (inactive) | > 100 µM (inactive) | 49.2 µM (inactive) | > 100 µM (inactive) | 21.3 µM (inactive) | 23.8 µM (inactive) | 98.9 µM (inactive) | 89.1 µM (inactive) | > 100 µM (inactive) |  |  | 
5 | CNc1nc(N)c(N=O)c(Nc2ccc(Br)cc2)n1 |  | > 100 µM (inactive) | > 100 µM (inactive) | > 100 µM (inactive) | > 100 µM (inactive) |  | > 100 µM (inactive) | > 100 µM (inactive) | > 100 µM (inactive) | > 100 µM (inactive) | > 100 µM (inactive) | > 100 µM (inactive) | > 100 µM (inactive) | 81.8 µM (inactive) | > 100 µM (inactive) | 72.9 µM (inactive) | > 100 µM (inactive) |  | > 100 µM (inactive) | 
6 | C[C@H]1[C@H](N2CCCC2)O[Si](C(C)(C)C)(C(C)(C)C)[C@@H]1C | < 0.01 µM (active) | > 100 µM (inactive) | > 100 µM (inactive) | > 100 µM (inactive) | > 100 µM (inactive) | > 100 µM (inactive) | > 100 µM (inactive) | > 100 µM (inactive) | > 100 µM (inactive) | > 100 µM (inactive) |  | > 100 µM (inactive) | > 100 µM (inactive) | 36.2 µM (inactive) | > 100 µM (inactive) |  | > 100 µM (inactive) | > 100 µM (inactive) |  | > 100 µM (inactive)
7 | O=C1c2ccccc2C(=O)c2c1ccc(C1C(=O)c3ccccc3C1=O)c2-c1c(C2C(=O)c3ccccc3C2=O)ccc2c1C(=O)c1ccccc1C2=O | > 100 µM (inactive) | > 100 µM (inactive) | > 100 µM (inactive) | 13.1 µM (inactive) | > 100 µM (inactive) | > 100 µM (inactive) | > 100 µM (inactive) | > 100 µM (inactive) | > 100 µM (inactive) | > 100 µM (inactive) |  | > 100 µM (inactive) | > 100 µM (inactive) |  | > 100 µM (inactive) | > 100 µM (inactive) | > 100 µM (inactive) | > 100 µM (inactive) | > 100 µM (inactive) | > 100 µM (inactive)
8 | C[C@@H]1OC(=O)C[C@H]2CC(=O)N(CCC3CN(C(=O)OCc4ccccc4)c4ccccc43)C[C@@H]21 (some centres not stated) | > 100 µM (inactive) | > 100 µM (inactive) | > 100 µM (inactive) | > 100 µM (inactive) | > 100 µM (inactive) | > 100 µM (inactive) | > 100 µM (inactive) | > 100 µM (inactive) |  | > 100 µM (inactive) |  | > 100 µM (inactive) | > 100 µM (inactive) |  | > 100 µM (inactive) | > 100 µM (inactive) | > 100 µM (inactive) | > 100 µM (inactive) | > 100 µM (inactive) | > 100 µM (inactive)
9 | C[C@H]1CC[C@@H]2[C@@H](C)C[C@H]3[C@@H]4C(C)(C)OC(=O)[C@]4(C)C(=O)[C@@]23C1=O | 85.5 µM (inactive) | > 100 µM (inactive) | > 100 µM (inactive) | > 100 µM (inactive) | > 100 µM (inactive) | > 100 µM (inactive) | > 100 µM (inactive) | > 100 µM (inactive) | > 100 µM (inactive) | > 100 µM (inactive) |  |  | > 100 µM (inactive) | > 100 µM (inactive) | > 100 µM (inactive) | > 100 µM (inactive) | > 100 µM (inactive) | > 100 µM (inactive) |  | 14 µM (inactive)
10 | COc1ccc(NC(C)=O)cc1C1CCC(=O)N1 (configuration not stated) | > 100 µM (inactive) | > 100 µM (inactive) | > 100 µM (inactive) | > 100 µM (inactive) | > 100 µM (inactive) | > 100 µM (inactive) | > 100 µM (inactive) | > 100 µM (inactive) | > 100 µM (inactive) | > 100 µM (inactive) |  | > 100 µM (inactive) | > 100 µM (inactive) | > 100 µM (inactive) | > 100 µM (inactive) | > 100 µM (inactive) | > 100 µM (inactive) | > 100 µM (inactive) |  | > 100 µM (inactive)
11 | CCOC(=O)CCC(NC(=O)C(N)c1ccc([N+](=O)[O-])cc1)C(=O)NC(CCC(=O)OCC)C(=O)OCC (configuration not stated) | > 100 µM (inactive) |  | > 100 µM (inactive) | > 100 µM (inactive) | > 100 µM (inactive) |  | > 100 µM (inactive) |  | > 100 µM (inactive) |  | > 100 µM (inactive) | > 100 µM (inactive) | > 100 µM (inactive) |  | > 100 µM (inactive) |  |  |  |  | 35.6 µM (inactive)
12 | O=Cc1ccc(-c2ccc(-c3ccc(C=O)s3)o2)s1 | > 89.3 µM (inactive) | 71.4 µM (inactive) | > 87.7 µM (inactive) | > 100 µM (inactive) | 98.4 µM (inactive) | 2.79 µM (inactive) | 0.108 µM (active) | > 77.3 µM (inactive) | 97.9 µM (inactive) | 1.44 µM (inactive) | > 40.8 µM (inactive) | > 90.6 µM (inactive) |  | > 43.6 µM (inactive) | 3.27 µM (inactive) | > 100 µM (inactive) | 61.5 µM (inactive) | 0.418 µM (active) | 0.233 µM (active) | 
13 | NNC(=S)N/N=C(\c1nc2ccc(Cl)cc2nc1O)C(O)c1cccc([N+](=O)[O-])c1 (configuration not stated) | > 86.3 µM (inactive) |  | > 100 µM (inactive) | > 43.3 µM (inactive) | > 49 µM (inactive) | > 72.1 µM (inactive) | > 100 µM (inactive) | > 63.7 µM (inactive) | 72.3 µM (inactive) | > 100 µM (inactive) | 15.9 µM (inactive) | > 100 µM (inactive) |  | > 52.5 µM (inactive) | > 100 µM (inactive) | > 52.1 µM (inactive) |  | > 74.1 µM (inactive) | > 94.4 µM (inactive) | 
14 | COc1ccc(CCc2nccn2C)cc1OC | > 100 µM (inactive) | > 100 µM (inactive) | > 100 µM (inactive) | > 100 µM (inactive) | > 100 µM (inactive) | > 100 µM (inactive) | > 100 µM (inactive) | > 100 µM (inactive) | > 100 µM (inactive) | > 100 µM (inactive) | > 100 µM (inactive) | > 100 µM (inactive) | > 100 µM (inactive) | > 100 µM (inactive) | > 100 µM (inactive) | > 100 µM (inactive) | > 100 µM (inactive) | > 100 µM (inactive) |  | 
15 | C/C=C(/C)c1cnc(CC(C)C)c(=O)[nH]1 | > 100 µM (inactive) | > 100 µM (inactive) | > 100 µM (inactive) | 0.35 µM (active) | > 100 µM (inactive) | > 100 µM (inactive) | > 100 µM (inactive) | > 100 µM (inactive) | > 100 µM (inactive) | > 100 µM (inactive) | > 100 µM (inactive) | > 100 µM (inactive) |  | > 100 µM (inactive) | > 100 µM (inactive) | > 100 µM (inactive) |  | > 100 µM (inactive) | > 100 µM (inactive) | > 100 µM (inactive)
16 | NCCCCN(CCCN)Cc1ccc2ccccc2c1 | 29 µM (inactive) | > 100 µM (inactive) | 92.7 µM (inactive) | > 100 µM (inactive) | > 100 µM (inactive) | 39.4 µM (inactive) | 95.7 µM (inactive) | 44 µM (inactive) | 12.9 µM (inactive) |  |  |  | 54.1 µM (inactive) | 27.1 µM (inactive) | 25.2 µM (inactive) | 12.6 µM (inactive) | > 100 µM (inactive) | 13.8 µM (inactive) | 63.4 µM (inactive) | > 100 µM (inactive)
